Earlier results as cited in US9999577B2, “Cream gels comprising at least one retinoid and benzoyl peroxide” (GALDERMA RESEARCH & DEVELOPMENT, priority 2006, dated 2018).
Read-outs that look alike come from different tables or passages of the source.

Legend:
[1] = for Decomposition time of benzoyl peroxide: 40° C.
[2] = not given; remark: listed apart in the source

For `O=C(OOC(=O)c1ccccc1)c1ccccc1` [benzoyl peroxide], which “Decomposition of benzoyl peroxide in suspension” value ([1]; dispersed form in water and propylene glycol, storing for 90 days) is on record?
Its value is “not decomposed”.

What about the “Decomposition time of benzoyl peroxide” value ([1]; in PEG 400 (0.5 mg/g)) of the same compound?
Its value is 1.4 days.

And the “Decomposition time of benzoyl peroxide” value ([1]; in ethanol)?
The value was 29 days.

And the “Decomposition time of benzoyl peroxide” value ([1]; in propylene glycol)?
The value was 53 days.

What about the “Solubility of benzoyl peroxide” value (solvent PEG 400) of the same compound?
The value was 39.6 mg/g.

And the “Solubility of benzoyl peroxide” value (solvent ethanol)?
The value was 17.9 mg/g.

And the “Solubility of benzoyl peroxide” value (solvent glycerol)?
The value was 0.15 mg/g.

And the “Solubility of benzoyl peroxide” value (solvent propylene glycol)?
The value was 2.95 mg/g.

What about the “Solubility of benzoyl peroxide” value (solvent propylene glycol/water (75:25)) of the same compound?
Its value is 0.36 mg/g.

What about the “Solubility of benzoyl peroxide” value (solvent water) of the same compound?
Its value is 0.000155 mg/g.

With `COc1ccc(-c2ccc3cc(C(=O)O)ccc3c2)cc1C12CC3CC(CC(C3)C1)C2` [adapalene, 6-(3-(1-adamantyl)-4-methoxyphenyl)-2-naphthoic acid] as the compound, how does the “Retinoid decomposition in presence of benzoyl peroxide formulation” value ([2]; during 24 hours) read?
The value was “no decomposition”.

What does the source list for `CC1=C(/C=C/C(C)=C/C=C/C(C)=C/C(=O)O)C(C)(C)CCC1` [tretinoin]?
Retinoid decomposing in presence of benzoyl peroxide formulation ([2]; 2 hours): 50%; Retinoid decomposing in presence of benzoyl peroxide formulation ([2]; 4 hours): 95%
